According to patent US20240239785A1, “SUBSTITUTED 2-(2,6-DIOXOPIPERIDIN-3-YL)-5-(1-PIPERIDIN-4-YL)ISOINDOLINE-1,3-DIONE DERIVATIVES AND USES THEREOF” (Neomorph, Inc., priority 2021, published 2024):
Structures can show the parent of a compound that is named as a salt. Where two headings read alike, the source gives them in different places.

Key:
IKZF2 = target: T1, IKZF2 (Homo sapiens, UniProt Q96SW2+Q9UKS7); assay: MOLT4 IKZF2 HiBit assay; assay type: cell-based; settings: MOLT4 IKZF2 HiBit cells; for DC50: 6 hours incubation, 10-point dose response from 30 μM; for Dmax at 30 µM: MOLT-4, 6 hr (Dmax), read-out: % reduction of IKZF2 @ 30 μM (6 hr)
T1 construct: endogenous in cells; host or cells: MOLT4 (CRISPR/Cas9 HiBit knock-in at the IKZF2 locus)
Description: MOLT4 IKZF2 HiBit Assay Protocol:
This protocol used MOLT4 cells that were engineered using CRISPR/Cas9-mediated genomic insertion of HiBit, tagged to the N terminus of the IKZF2 coding sequence. Day 1. A 10-point dose response was created starting from 30 μM down to InM using a Tecan D300e. Next was added 8,000 cells/well of the MOLT4 IKZF2 HiBit cells to the compound plate. The compounds plate was incubated for 6 hours. Day 2. Nano-Glo HiBit Lytic Buffer/Nano-Glo HiBit Lytic substrate/LgBit Protein mix was added to each well and the compound plate was incubated for 15 minutes. Finally, luminescence signal was read using a BMG Labtech PHERAstar FSX. Data was normalized to DMSO and graphed using GraphPad Prism to determine the concentration points at which 50% of HiBiT-Helios degradation was achieved by each compound. The extent of degradation (range of luminescence) from the highest to lowest concentration points was calculated to determine Dmax.

hERG = hERG (Homo sapiens, UniProt Q12809); assay: hERG IC50
Sequence of hERG (Q12809 whole entry): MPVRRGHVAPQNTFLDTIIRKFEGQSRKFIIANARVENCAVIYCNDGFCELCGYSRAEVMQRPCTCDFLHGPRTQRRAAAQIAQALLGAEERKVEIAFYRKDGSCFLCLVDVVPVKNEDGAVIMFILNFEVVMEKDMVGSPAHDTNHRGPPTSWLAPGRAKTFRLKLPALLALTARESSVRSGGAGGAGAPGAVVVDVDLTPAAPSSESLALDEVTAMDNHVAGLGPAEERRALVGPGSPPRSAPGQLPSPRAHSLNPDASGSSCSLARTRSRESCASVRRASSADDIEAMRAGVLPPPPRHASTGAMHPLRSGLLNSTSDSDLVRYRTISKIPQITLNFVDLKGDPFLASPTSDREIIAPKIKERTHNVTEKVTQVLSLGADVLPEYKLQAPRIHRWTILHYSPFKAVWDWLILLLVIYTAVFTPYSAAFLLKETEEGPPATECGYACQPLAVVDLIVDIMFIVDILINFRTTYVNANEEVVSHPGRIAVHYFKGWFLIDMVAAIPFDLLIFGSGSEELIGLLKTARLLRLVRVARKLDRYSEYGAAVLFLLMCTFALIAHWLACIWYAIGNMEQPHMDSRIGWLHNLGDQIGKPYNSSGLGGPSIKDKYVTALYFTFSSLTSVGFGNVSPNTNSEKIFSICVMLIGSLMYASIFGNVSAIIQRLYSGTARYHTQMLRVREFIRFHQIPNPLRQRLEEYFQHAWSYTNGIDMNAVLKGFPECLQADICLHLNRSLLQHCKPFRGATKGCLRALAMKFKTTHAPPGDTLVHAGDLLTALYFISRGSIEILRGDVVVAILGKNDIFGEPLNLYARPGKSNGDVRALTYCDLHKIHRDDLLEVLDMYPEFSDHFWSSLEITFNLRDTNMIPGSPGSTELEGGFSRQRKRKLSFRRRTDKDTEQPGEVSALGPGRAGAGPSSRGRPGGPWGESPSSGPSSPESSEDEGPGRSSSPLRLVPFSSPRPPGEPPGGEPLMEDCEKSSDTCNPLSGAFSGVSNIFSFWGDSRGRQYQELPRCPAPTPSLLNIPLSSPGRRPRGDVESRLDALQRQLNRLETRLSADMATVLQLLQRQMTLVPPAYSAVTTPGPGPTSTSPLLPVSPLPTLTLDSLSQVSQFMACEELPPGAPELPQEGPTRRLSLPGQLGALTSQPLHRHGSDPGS

T1 sequence (Q9UKS7 whole entry): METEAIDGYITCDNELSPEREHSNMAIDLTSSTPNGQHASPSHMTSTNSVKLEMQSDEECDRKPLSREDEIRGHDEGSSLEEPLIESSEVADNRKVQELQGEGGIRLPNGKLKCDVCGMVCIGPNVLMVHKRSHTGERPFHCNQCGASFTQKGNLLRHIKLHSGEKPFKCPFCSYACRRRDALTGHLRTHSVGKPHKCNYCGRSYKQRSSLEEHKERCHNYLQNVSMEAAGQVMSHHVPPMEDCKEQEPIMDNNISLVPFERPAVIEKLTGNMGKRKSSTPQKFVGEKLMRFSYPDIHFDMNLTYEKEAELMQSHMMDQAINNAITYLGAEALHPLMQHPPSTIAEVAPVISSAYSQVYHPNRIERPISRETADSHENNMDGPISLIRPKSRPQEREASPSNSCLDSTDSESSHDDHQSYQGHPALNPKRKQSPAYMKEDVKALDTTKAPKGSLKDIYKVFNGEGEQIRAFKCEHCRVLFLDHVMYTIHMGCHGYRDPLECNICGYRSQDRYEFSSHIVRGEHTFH
T1 sequence (Q96SW2 whole entry): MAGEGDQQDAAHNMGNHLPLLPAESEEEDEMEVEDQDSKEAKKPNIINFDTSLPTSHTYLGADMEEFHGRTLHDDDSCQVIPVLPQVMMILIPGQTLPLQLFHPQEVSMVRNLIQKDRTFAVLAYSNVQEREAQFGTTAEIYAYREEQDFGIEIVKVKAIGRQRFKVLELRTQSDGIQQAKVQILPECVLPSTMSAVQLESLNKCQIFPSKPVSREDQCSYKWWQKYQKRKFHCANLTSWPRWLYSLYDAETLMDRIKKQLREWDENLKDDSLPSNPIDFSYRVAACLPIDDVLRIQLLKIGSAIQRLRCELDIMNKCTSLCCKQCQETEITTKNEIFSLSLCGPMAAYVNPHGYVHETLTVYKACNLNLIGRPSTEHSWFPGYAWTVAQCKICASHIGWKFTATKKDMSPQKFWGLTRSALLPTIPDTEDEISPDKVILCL
T1 sequence (Q16531 whole entry partner): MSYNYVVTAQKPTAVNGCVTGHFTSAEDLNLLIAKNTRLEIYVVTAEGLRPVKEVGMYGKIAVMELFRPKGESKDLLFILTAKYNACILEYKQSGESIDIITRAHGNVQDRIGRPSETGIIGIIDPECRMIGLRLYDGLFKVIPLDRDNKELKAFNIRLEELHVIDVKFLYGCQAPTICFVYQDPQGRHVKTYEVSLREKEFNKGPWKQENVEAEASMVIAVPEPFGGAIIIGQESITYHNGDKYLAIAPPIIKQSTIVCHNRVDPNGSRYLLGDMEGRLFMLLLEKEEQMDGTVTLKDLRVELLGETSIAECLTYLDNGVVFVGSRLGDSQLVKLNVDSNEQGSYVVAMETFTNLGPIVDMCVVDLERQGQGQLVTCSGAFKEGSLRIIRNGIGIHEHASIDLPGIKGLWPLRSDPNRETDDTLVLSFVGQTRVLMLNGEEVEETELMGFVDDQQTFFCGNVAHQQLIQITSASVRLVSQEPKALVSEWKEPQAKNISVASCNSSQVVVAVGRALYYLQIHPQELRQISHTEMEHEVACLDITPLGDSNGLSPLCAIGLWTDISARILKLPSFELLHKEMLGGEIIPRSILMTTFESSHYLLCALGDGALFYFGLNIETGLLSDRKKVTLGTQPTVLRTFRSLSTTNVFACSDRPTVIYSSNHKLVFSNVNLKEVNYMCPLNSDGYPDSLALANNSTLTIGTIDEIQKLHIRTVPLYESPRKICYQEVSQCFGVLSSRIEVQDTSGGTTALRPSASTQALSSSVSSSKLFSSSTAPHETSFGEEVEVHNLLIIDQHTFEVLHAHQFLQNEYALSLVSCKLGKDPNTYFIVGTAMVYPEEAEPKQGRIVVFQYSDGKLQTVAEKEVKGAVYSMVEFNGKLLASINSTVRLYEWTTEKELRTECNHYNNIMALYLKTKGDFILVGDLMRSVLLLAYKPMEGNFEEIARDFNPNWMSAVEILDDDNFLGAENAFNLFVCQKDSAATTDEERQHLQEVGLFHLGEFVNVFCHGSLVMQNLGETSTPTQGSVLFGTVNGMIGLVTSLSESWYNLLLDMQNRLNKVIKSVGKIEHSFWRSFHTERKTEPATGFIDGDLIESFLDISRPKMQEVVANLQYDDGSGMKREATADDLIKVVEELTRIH

SMILES | DC50 (IKZF2) | Dmax at 30 µM (IKZF2) | IC50 (hERG) | IC50 (hERG; human)
O=C1CCC(N2C(=O)c3ccc(C4(O)CCN(C5CCc6ncccc65)CC4)cc3C2=O)C(=O)N1 (stereo not shown) [Compound 7, 5-(1-{5H,6H,7H-cyclopenta[b]pyridin-5-yl}-4-hydroxypiperidin-4-yl)-2-(2,6-dioxopiperidin-3-yl)-2,3-dihydro-1H-isoindole-1,3-dione, HCl salt] | 9 nM | 90% | > 30000 nM | 
CC1CC(O)(c2ccc3c(c2)C(=O)N(C2CCC(=O)NC2=O)C3=O)CCN1Cc1ccccc1 (stereo not shown) [Compound 15, 5-(1-benzyl-4-hydroxy-2-methylpiperidin-4-yl)-2-(2,6-dioxopiperidin-3-yl)-2,3-dihydro-1H-isoindole-1,3-dione] | 12 nM | 66% | > 30000 nM | 
O=C1CCC(N2C(=O)c3ccc(C4(O)CCN(Cc5ccc(F)c(F)c5)CC4)cc3C2=O)C(=O)N1 (stereo not shown) [Compound 60, 5-{1-[(3,4-difluorophenyl)methyl]-4-hydroxypiperidin-4-yl}-2-(2,6-dioxopiperidin-3-yl)-2,3-dihydro-1H-isoindole-1,3-dione, HCl salt] | 6 nM | 80% | 23000 nM | 
O=C1CCC(N2C(=O)c3ccc(C4(O)CCN(Cc5coc(-c6ccccc6)n5)CC4)cc3C2=O)C(=O)N1 (stereo not shown) [Compound 91, 2-(2,6-dioxopiperidin-3-yl)-5-{4-hydroxy-1-[(2-phenyl-1,3-oxazol-4-yl)methyl]piperidin-4-yl}-2,3-dihydro-1H-isoindole-1,3-dione, HCl salt] | 21 nM | 60% |  | 
O=C1CCC(N2C(=O)c3ccc(C4(O)CCN(Cc5ccn(-c6ccccc6)n5)CC4)cc3C2=O)C(=O)N1 (stereo not shown) [Compound 94, 2-(2,6-dioxopiperidin-3-yl)-5-{4-hydroxy-1-[(1-phenyl-1H-pyrazol-3-yl)methyl]piperidin-4-yl}-2,3-dihydro-1H-isoindole-1,3-dione, HCl salt] | 8 nM | 79% |  | 
O=C1CCC(N2C(=O)c3ccc(C4CCN(Cc5ccc6ncn(-c7ccccn7)c(=O)c6c5)CC4)cc3C2=O)C(=O)N1 (stereo not shown) [Compound 97, 2-(2,6-dioxopiperidin-3-yl)-5-(1-((4-oxo-3-(pyridin-2-yl)-3,4-dihydroquinazolin-6-yl)methyl)piperidin-4-yl)isoindoline-1,3-dione] |  | 36% |  | 
O=C1CCC(N2C(=O)c3ccc(C4(O)CCN(Cc5ccc6ncn(-c7ccccn7)c(=O)c6c5)CC4)cc3C2=O)C(=O)N1 (stereo not shown) [Compound 98, 2-(2,6-dioxopiperidin-3-yl)-5-(4-hydroxy-1-((4-oxo-3-(pyridin-2-yl)-3,4-dihydroquinazolin-6-yl)methyl)piperidin-4-yl)isoindoline-1,3-dione] | 1.5 nM | 72% |  | 
O=C1CCC(N2C(=O)c3ccc(C4(O)CCN(Cc5ccc6ncn(-c7cccnc7)c(=O)c6c5)CC4)cc3C2=O)C(=O)N1 (stereo not shown) [Compound 99, 2-(2,6-dioxopiperidin-3-yl)-5-(4-hydroxy-1-{[4-oxo-3-(pyridin-3-yl)-3,4-dihydroquinazolin-6-yl]methyl}piperidin-4-yl)-2,3-dihydro-1H-isoindole-1,3-dione, formic acid salt] | 1 nM | 89% |  | 
O=C1CCC(N2C(=O)c3ccc(C4(O)CCN(Cc5ccc6scnc6c5)CC4)cc3C2=O)C(=O)N1 (stereo not shown) [Compound 111, 5-{1-[(1,3-benzothiazol-5-yl)methyl]-4-hydroxypiperidin-4-yl}-2-(2,6-dioxopiperidin-3-yl)-2,3-dihydro-1H-isoindole-1,3-dione, HCl salt] | 5 nM | 83% | > 30000 nM | 
O=C1CCC(N2C(=O)c3ccc(C4(O)CCN(Cc5ccccc5)CC4)c(F)c3C2=O)C(=O)N1 (stereo not shown) [Compound 128, 5-(1-benzyl-4-hydroxypiperidin-4-yl)-2-(2,6-dioxopiperidin-3-yl)-4-fluoro-2,3-dihydro-1H-isoindole-1,3-dione, HCl salt] | 2 nM | 81% |  | 
O=C1CCC(N2C(=O)c3ccc(C4(O)CCN(Cc5ccc(F)cc5)CC4)c(F)c3C2=O)C(=O)N1 (stereo not shown) [Compound 132, 2-(2,6-dioxopiperidin-3-yl)-4-fluoro-5-(1-(4-fluorobenzyl)-4-hydroxypiperidin-4-yl)isoindoline-1,3-dione] | 7 nM | 79% |  | 30000 nM
Cn1ncc2ccc(CN3CCC(O)(c4ccc5c(c4)C(=O)N(C4CCC(=O)NC4=O)C5=O)CC3)cc21 (stereo not shown) [Compound 140, 2-(2,6-dioxopiperidin-3-yl)-5-{4-hydroxy-1-[(1-methyl-1H-indazol-6-yl)methyl]piperidin-4-yl}-2,3-dihydro-1H-isoindole-1,3-dione, formic acid salt] | 3 nM | 87% |  | 
Cn1ccc2cc(CN3CCC(O)(c4ccc5c(c4)C(=O)N(C4CCC(=O)NC4=O)C5=O)CC3)ccc21 (stereo not shown) [Compound 141, 2-(2,6-dioxopiperidin-3-yl)-5-{4-hydroxy-1-[(1-methyl-1H-indol-5-yl)methyl]piperidin-4-yl}-2,3-dihydro-1H-isoindole-1,3-dione, HCl salt] | 11 nM | 86% |  | 
Cn1c(CN2CCC(O)(c3ccc4c(c3)C(=O)N(C3CCC(=O)NC3=O)C4=O)CC2)cc2ccccc21 (stereo not shown) [Compound 142, 2-(2,6-dioxopiperidin-3-yl)-5-{4-hydroxy-1-[(1-methyl-1H-indol-2-yl)methyl]piperidin-4-yl}-2,3-dihydro-1H-isoindole-1,3-dione, formic acid salt] | 13 nM | 82% |  | 
CC(c1ccc(C(F)(F)F)cc1)N1CCC(O)(c2ccc3c(c2)C(=O)N(C2CCC(=O)NC2=O)C3=O)CC1 (stereo not shown) [Compound 143, 2-(2,6-dioxopiperidin-3-yl)-5-(4-hydroxy-1-{1-[4-(trifluoromethyl)phenyl]ethyl}piperidin-4-yl)-2,3-dihydro-1H-isoindole-1,3-dione, HCl salt] | 6 nM | 84% |  | 
O=C1CCC(N2C(=O)c3ccc(C4(O)CCN(Cc5ccc6[nH]ccc6c5)CC4)cc3C2=O)C(=O)N1 (stereo not shown) [Compound 144, 2-(2,6-dioxopiperidin-3-yl)-5-{4-hydroxy-1-[(1H-indol-5-yl)methyl]piperidin-4-yl}-2,3-dihydro-1H-isoindole-1,3-dione, formic acid salt] | 16 nM | 88% |  | 
Cn1ncc2cc(CN3CCC(O)(c4ccc5c(c4)C(=O)N(C4CCC(=O)NC4=O)C5=O)CC3)ccc21 (stereo not shown) [Compound 145, 2-(2,6-dioxopiperidin-3-yl)-5-{4-hydroxy-1-[(1-methyl-1H-indazol-5-yl)methyl]piperidin-4-yl}-2,3-dihydro-1H-isoindole-1,3-dione, formic acid salt] | 4 nM | 83% |  | 
CCCN1CCC(O)(c2ccc3c(c2)C(=O)N(C2CCC(=O)NC2=O)C3=O)CC1 (stereo not shown) [Compound 146, 2-(2,6-dioxopiperidin-3-yl)-5-(4-hydroxy-1-propylpiperidin-4-yl)-2,3-dihydro-1H-isoindole-1,3-dione, HCl salt] | 43 nM | 69% |  | 
O=C1CCC(N2C(=O)c3ccc(C4(O)CCN(Cc5ccc(-c6nccs6)cc5)CC4)cc3C2=O)C(=O)N1 (stereo not shown) [Compound 147, 2-(2,6-dioxopiperidin-3-yl)-5-(4-hydroxy-1-{[4-(1,3-thiazol-2-yl)phenyl]methyl}piperidin-4-yl)-2,3-dihydro-1H-isoindole-1,3-dione, HCl salt] | 8 nM | 88% |  | 
CCCN1CCC(O)(c2ccc3c(c2F)C(=O)N(C2CCC(=O)NC2=O)C3=O)CC1 (stereo not shown) [Compound 148, 2-(2,6-dioxopiperidin-3-yl)-4-fluoro-5-(4-hydroxy-1-propylpiperidin-4-yl)-2,3-dihydro-1H-isoindole-1,3-dione, HCl salt] | 30 nM | 73% |  | 
O=C1CCC(N2C(=O)c3ccc(C4(O)CCN(CC(O)c5ccccc5)CC4)cc3C2=O)C(=O)N1 (stereo not shown) [Compound 149, 2-(2,6-dioxopiperidin-3-yl)-5-(4-hydroxy-1-(2-hydroxy-2-phenylethyl)piperidin-4-yl)isoindoline-1,3-dione] | 22 nM | 76% |  | 
